Earlier results in patent US20070286864A1, “Combined treatment with an EGFR kinase inhibitor and an agent that sensitizes tumor cells to the effects of EGFR kinase inhibitors” (priority 2006, published 2007).

Experiments:
H1703 cells = conditions: erlotinib single agent (10 μM), relatively insensitive = maximum growth inhibition less than 50%
H292 cells = conditions: erlotinib single agent (10 μM), sensitive = maximum growth inhibition greater than 50%
Calu6 cells = conditions: erlotinib single agent (10 μM), relatively insensitive = maximum growth inhibition less than 50%
H460 cells = conditions: erlotinib single agent (10 μM), relatively insensitive = maximum growth inhibition less than 50%
H358 cells = conditions: erlotinib single agent (10 μM), sensitive = maximum growth inhibition greater than 50%

C#Cc1cccc(Nc2ncnc3cc(OCCOC)c(OCCOC)cc23)c1 [erlotinib, [6,7-bis(2-methoxyethoxy)-4-quinazolin-4-yl]-(3-ethynylphenyl)amine]
sensitivity of cell line to erlotinib (H1703 cells): relatively insensitive | sensitivity of cell line to erlotinib (H292 cells): sensitive | sensitivity of cell line to erlotinib (Calu6 cells): relatively insensitive | sensitivity of cell line to erlotinib (H460 cells): relatively insensitive | sensitivity of cell line to erlotinib (H358 cells): sensitive
